Assay results published in PubChem BioAssay (NCI).
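Cultured in 96-well plates, cells were exposed to test compound for 48 hours across five concentrations. The concentration for full growth arrest is given as TGI.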

Experiments:
Assay in all cases: NCI-60 cell line screen, 48 h
KM12 colon = system: KM12 colon
HCT-15 colon = system: HCT-15 colon
SNB-19 CNS = system: SNB-19 CNS
RXF 393 renal = system: RXF 393 renal
SNB-75 CNS = system: SNB-75 CNS
NCI-H23 lung = system: NCI-H23 lung
MDA-MB-435 = system: MDA-MB-435
HOP-62 NSCLC = system: HOP-62 NSCLC
SF-295 CNS = system: SF-295 CNS
K-562 leukemia = system: K-562 leukemia

For `NC(=O)Cc1nc2c(=O)[nH]cnc2n1C1OC(CO)C(O)C1O` (stereo not given), the TGI (KM12 colon) was > 100 µM, the TGI (HCT-15 colon) was > 100 µM and the TGI (SNB-19 CNS) was > 100 µM. The TGI (RXF 393 renal) was > 100 µM, the TGI (SNB-75 CNS) was > 100 µM and the TGI (NCI-H23 lung) was > 100 µM. The TGI (MDA-MB-435) was > 100 µM, the TGI (HOP-62 NSCLC) was > 100 µM and the TGI (SF-295 CNS) was > 100 µM. For the same compound, the TGI (K-562 leukemia) was > 100 µM.
For `Cc1[nH]c(=O)[nH]c(=S)c1C(=O)Nc1cccc2cc3ccccc3cc12`, the TGI (KM12 colon) was > 100 µM, the TGI (HCT-15 colon) was > 100 µM and the TGI (SNB-19 CNS) was > 100 µM. The TGI (RXF 393 renal) was > 100 µM, the TGI (SNB-75 CNS) was > 100 µM and the TGI (NCI-H23 lung) was > 100 µM. For the same compound, the TGI (MDA-MB-435) was > 100 µM, the TGI (HOP-62 NSCLC) was > 100 µM and the TGI (SF-295 CNS) was > 100 µM. For the same compound, the TGI (K-562 leukemia) was > 100 µM.
For `COc1c(C)c(C/C=C(\C)CC/C=C(\C)CCC=C(C)C)c(OC)c(OC)c1OC`, the TGI (KM12 colon) was > 100 µM, the TGI (HCT-15 colon) was > 100 µM and the TGI (SNB-19 CNS) was > 100 µM. The TGI (RXF 393 renal) was > 100 µM, the TGI (SNB-75 CNS) was > 100 µM and the TGI (NCI-H23 lung) was > 100 µM. The TGI (MDA-MB-435) was > 100 µM, the TGI (HOP-62 NSCLC) was > 100 µM and the TGI (SF-295 CNS) was > 100 µM. The TGI (K-562 leukemia) was > 100 µM.
`CO[C@H]1C[C@H](O[C@H]2CC[C@]3(C=O)[C@H]4CC[C@]5(C)[C@@H](C6=CC(=O)OC6)CC[C@]5(O)[C@@H]4CC[C@]3(O)C2)O[C@H](C)[C@H]1O` was tested, and the TGI (KM12 colon) was 1.93 µM, the TGI (HCT-15 colon) was 0.732 µM and the TGI (SNB-19 CNS) was 4.8 µM. It also gave a TGI (RXF 393 renal) of 0.189 µM, a TGI (SNB-75 CNS) of 3.13 µM and a TGI (NCI-H23 lung) of 0.787 µM. The TGI (MDA-MB-435) was 1.47 µM, the TGI (HOP-62 NSCLC) was 0.135 µM and the TGI (SF-295 CNS) was 0.671 µM. The TGI (K-562 leukemia) was 1.35 µM.
In the case of `NCCC1CN(C(=O)OCc2ccccc2)c2ccccc21` (stereo not given), the TGI (KM12 colon) is reported as 48.2 µM, the TGI (HCT-15 colon) is reported as 14.5 µM and the TGI (SNB-19 CNS) is reported as > 51.3 µM. It also gave a TGI (RXF 393 renal) of 32.3 µM, a TGI (SNB-75 CNS) of 43.3 µM and a TGI (NCI-H23 lung) of 41.8 µM. For the same compound, the TGI (MDA-MB-435) was 30 µM, the TGI (HOP-62 NSCLC) was > 54.4 µM and the TGI (SF-295 CNS) was 40.3 µM. It also gave a TGI (K-562 leukemia) of 26.9 µM.
In the case of `CCOC(=O)c1cnccc1CC1(C#N)c2ccccc2C=CN1C(=O)c1ccccc1` (stereo not given), the TGI (KM12 colon) is reported as 31.3 µM, the TGI (HCT-15 colon) is reported as > 100 µM and the TGI (SNB-19 CNS) is reported as > 100 µM. The TGI (RXF 393 renal) was > 100 µM, the TGI (SNB-75 CNS) was 52.9 µM and the TGI (NCI-H23 lung) was > 100 µM. For the same compound, the TGI (MDA-MB-435) was > 100 µM, the TGI (HOP-62 NSCLC) was > 100 µM and the TGI (SF-295 CNS) was > 100 µM. For the same compound, the TGI (K-562 leukemia) was 49.6 µM.
For `N/C(=N\Nc1ccc(S(N)(=O)=O)cc1)c1cnccn1`, the TGI (KM12 colon) was > 100 µM, the TGI (HCT-15 colon) was > 100 µM and the TGI (SNB-19 CNS) was > 100 µM. The TGI (RXF 393 renal) was > 100 µM, the TGI (SNB-75 CNS) was > 100 µM and the TGI (NCI-H23 lung) was > 100 µM. The TGI (MDA-MB-435) was > 100 µM, the TGI (HOP-62 NSCLC) was > 100 µM and the TGI (SF-295 CNS) was > 100 µM. For the same compound, the TGI (K-562 leukemia) was > 100 µM.
With `Cn1c2ccccc2n2c3ncccc3c(=S)c(C#N)c12` the TGI (KM12 colon) was > 100 µM, the TGI (HCT-15 colon) was > 100 µM and the TGI (SNB-19 CNS) was > 100 µM. For the same compound, the TGI (RXF 393 renal) was > 100 µM, the TGI (SNB-75 CNS) was > 100 µM and the TGI (NCI-H23 lung) was > 100 µM. For the same compound, the TGI (MDA-MB-435) was > 100 µM, the TGI (HOP-62 NSCLC) was > 100 µM and the TGI (SF-295 CNS) was > 100 µM. The TGI (K-562 leukemia) was > 100 µM.
For `N#Cc1nc(C#N)n(C(=O)c2ccccc2)c1NC(=O)c1ccccc1`, the TGI (KM12 colon) was > 100 µM, the TGI (HCT-15 colon) was > 100 µM and the TGI (SNB-19 CNS) was > 100 µM. For the same compound, the TGI (RXF 393 renal) was > 100 µM, the TGI (SNB-75 CNS) was > 100 µM and the TGI (NCI-H23 lung) was > 100 µM. The TGI (MDA-MB-435) was > 100 µM, the TGI (HOP-62 NSCLC) was > 100 µM and the TGI (SF-295 CNS) was > 100 µM. For the same compound, the TGI (K-562 leukemia) was > 100 µM.
In the case of `CCN(CC)c1nc(N(C)C)c2ccccc2n1`, the TGI (KM12 colon) is reported as > 100 µM, the TGI (HCT-15 colon) is reported as > 100 µM and the TGI (SNB-19 CNS) is reported as > 100 µM. For the same compound, the TGI (RXF 393 renal) was 76.6 µM, the TGI (SNB-75 CNS) was > 100 µM and the TGI (NCI-H23 lung) was > 100 µM. For the same compound, the TGI (MDA-MB-435) was > 100 µM, the TGI (HOP-62 NSCLC) was > 100 µM and the TGI (SF-295 CNS) was > 100 µM. For the same compound, the TGI (K-562 leukemia) was 44.5 µM.
With `CN1C(=O)C(O)CC1c1cccc(C(F)(F)F)c1` (stereo not given) the TGI (KM12 colon) was > 100 µM, the TGI (HCT-15 colon) was > 100 µM and the TGI (SNB-19 CNS) was > 100 µM. For the same compound, the TGI (RXF 393 renal) was > 100 µM, the TGI (SNB-75 CNS) was > 100 µM and the TGI (NCI-H23 lung) was > 100 µM. For the same compound, the TGI (MDA-MB-435) was > 100 µM, the TGI (HOP-62 NSCLC) was > 100 µM and the TGI (SF-295 CNS) was > 100 µM. The TGI (K-562 leukemia) was > 100 µM.
In the case of `CCCNc1ncnc2[nH]ncc12`, the TGI (KM12 colon) is reported as > 100 µM, the TGI (HCT-15 colon) is reported as > 100 µM and the TGI (SNB-19 CNS) is reported as > 100 µM. The TGI (RXF 393 renal) was > 100 µM, the TGI (SNB-75 CNS) was > 100 µM and the TGI (NCI-H23 lung) was > 100 µM. The TGI (MDA-MB-435) was > 100 µM, the TGI (HOP-62 NSCLC) was > 100 µM and the TGI (SF-295 CNS) was > 100 µM. For the same compound, the TGI (K-562 leukemia) was > 100 µM.
For `CCOP(=O)(OCC)/C(C#N)=C/c1cccn1Cc1ccccc1`, the TGI (KM12 colon) was 78.3 µM, the TGI (HCT-15 colon) was > 100 µM and the TGI (SNB-19 CNS) was > 100 µM. For the same compound, the TGI (RXF 393 renal) was > 100 µM, the TGI (SNB-75 CNS) was > 100 µM and the TGI (NCI-H23 lung) was > 100 µM. For the same compound, the TGI (MDA-MB-435) was 42 µM, the TGI (HOP-62 NSCLC) was > 100 µM and the TGI (SF-295 CNS) was 97.6 µM. The TGI (K-562 leukemia) was > 100 µM.
`COc1ccc(-c2cc(C(O)C3CCCCN3)c3ccccc3n2)cc1` (stereo not given) gave a TGI (KM12 colon) of 15.3 µM, a TGI (HCT-15 colon) of 34.2 µM and a TGI (SNB-19 CNS) of 28.1 µM. The TGI (RXF 393 renal) was 11.3 µM, the TGI (SNB-75 CNS) was 17.1 µM and the TGI (NCI-H23 lung) was 31.6 µM. The TGI (MDA-MB-435) was 15.1 µM, the TGI (HOP-62 NSCLC) was 24.3 µM and the TGI (SF-295 CNS) was 28.4 µM. For the same compound, the TGI (K-562 leukemia) was 8.24 µM.
With `NCCOCC(N)C(=O)O` (stereo not given) the TGI (KM12 colon) was > 100 µM, the TGI (HCT-15 colon) was > 100 µM and the TGI (SNB-19 CNS) was > 100 µM. The TGI (RXF 393 renal) was > 100 µM, the TGI (SNB-75 CNS) was > 100 µM and the TGI (NCI-H23 lung) was > 100 µM. The TGI (MDA-MB-435) was > 100 µM, the TGI (HOP-62 NSCLC) was > 100 µM and the TGI (SF-295 CNS) was > 100 µM. For the same compound, the TGI (K-562 leukemia) was > 100 µM.
`COC(=O)C1=C(O)C(C(=O)OC)[C@]2(O)[C@H](C(=O)OC)[C@H]1C[C@@H](c1ccc([N+](=O)[O-])cc1)[C@H]2C(=O)OC` (stereo not given in full) was tested, and the TGI (KM12 colon) was > 100 µM, the TGI (HCT-15 colon) was 38.6 µM and the TGI (SNB-19 CNS) was 65.5 µM. For the same compound, the TGI (RXF 393 renal) was 32.4 µM, the TGI (SNB-75 CNS) was > 100 µM and the TGI (NCI-H23 lung) was 31.4 µM. The TGI (MDA-MB-435) was > 100 µM, the TGI (HOP-62 NSCLC) was > 100 µM and the TGI (SF-295 CNS) was > 100 µM. The TGI (K-562 leukemia) was > 100 µM.
For `Cc1cc2c(c(=O)n1C)SCC2`, the TGI (KM12 colon) was > 100 µM, the TGI (HCT-15 colon) was > 100 µM and the TGI (SNB-19 CNS) was > 100 µM. For the same compound, the TGI (RXF 393 renal) was > 100 µM, the TGI (SNB-75 CNS) was > 100 µM and the TGI (NCI-H23 lung) was > 100 µM. For the same compound, the TGI (MDA-MB-435) was > 100 µM, the TGI (HOP-62 NSCLC) was > 100 µM and the TGI (SF-295 CNS) was > 100 µM. The TGI (K-562 leukemia) was > 100 µM.
`O=c1cc(NCc2ccncc2)[nH]c(=O)[nH]1` was tested, and the TGI (KM12 colon) was > 100 µM, the TGI (HCT-15 colon) was > 100 µM and the TGI (SNB-19 CNS) was > 100 µM. For the same compound, the TGI (RXF 393 renal) was > 100 µM, the TGI (SNB-75 CNS) was > 100 µM and the TGI (NCI-H23 lung) was > 100 µM. The TGI (MDA-MB-435) was > 100 µM, the TGI (HOP-62 NSCLC) was > 100 µM and the TGI (SF-295 CNS) was > 100 µM. The TGI (K-562 leukemia) was > 100 µM.
